Experimental findings from patent US20050043333A1, “Quinazolinone derivative” (Fujisawa Pharmaceutical Co., Ltd, priority 2001, published 2005) are described below.

The assay deals with recombinant human PARP (Homo sapiens, UniProt P09874). The experiment in a line: PARP Inhibitory Activity (In Vitro Assay). The format is biochemical. Particulars: 32P-NAD, 0.05 mM NAD, activated DNA, 15 minutes at room temperature. The method, then:
Incubation was for 15 minutes at a room temperature and the reaction was stopped by the addition of 200 μl of ice-cold 20% trichloroacetic acid followed by rapid filtration through GF/B filters. The filters were treated with scintillation fluid and acid-insoluble counts were measured for quantification of unit activity.

Where only a bound is given, the exact number is not on record here.

What is called IC50 is the concentration at which inhibition is half-maximal.

Sequence of recombinant human PARP (P09874 whole entry): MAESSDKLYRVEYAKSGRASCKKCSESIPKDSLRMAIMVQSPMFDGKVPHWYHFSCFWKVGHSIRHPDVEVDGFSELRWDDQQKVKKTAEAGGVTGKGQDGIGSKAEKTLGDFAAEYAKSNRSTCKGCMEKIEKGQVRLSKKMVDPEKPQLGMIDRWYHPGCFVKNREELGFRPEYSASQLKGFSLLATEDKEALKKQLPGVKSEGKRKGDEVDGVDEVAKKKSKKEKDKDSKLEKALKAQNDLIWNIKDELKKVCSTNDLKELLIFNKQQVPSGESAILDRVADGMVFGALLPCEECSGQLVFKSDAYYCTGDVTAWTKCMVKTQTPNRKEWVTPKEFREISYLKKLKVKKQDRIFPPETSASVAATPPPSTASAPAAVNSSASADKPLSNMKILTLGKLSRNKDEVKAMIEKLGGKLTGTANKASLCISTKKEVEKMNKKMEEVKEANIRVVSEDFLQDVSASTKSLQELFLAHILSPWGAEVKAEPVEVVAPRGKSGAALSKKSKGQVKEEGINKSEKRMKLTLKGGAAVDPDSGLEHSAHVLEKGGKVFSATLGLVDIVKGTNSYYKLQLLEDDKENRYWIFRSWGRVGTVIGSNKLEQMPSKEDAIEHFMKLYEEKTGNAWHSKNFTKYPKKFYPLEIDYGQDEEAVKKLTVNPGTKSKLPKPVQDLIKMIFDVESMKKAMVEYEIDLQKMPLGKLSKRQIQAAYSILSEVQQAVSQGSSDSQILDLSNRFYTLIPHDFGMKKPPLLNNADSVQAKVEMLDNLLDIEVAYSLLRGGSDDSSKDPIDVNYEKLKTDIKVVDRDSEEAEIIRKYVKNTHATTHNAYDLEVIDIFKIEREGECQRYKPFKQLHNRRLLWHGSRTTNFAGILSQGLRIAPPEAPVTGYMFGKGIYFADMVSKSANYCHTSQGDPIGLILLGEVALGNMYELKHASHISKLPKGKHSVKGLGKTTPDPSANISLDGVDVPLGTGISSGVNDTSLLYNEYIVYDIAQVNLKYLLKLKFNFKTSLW

`O=c1[nH]c(C2=CC(N3CC=C(c4ccccc4)CC3)CC2)nc2ccccc12` (stereo not shown) [Compound A, 2-[3-(4-phenyl-3,6-dihydro-1(2H)-pyridinyl)-1-cyclopenten-1-y 1]-4(3H)-quinazolinone]: the IC50 was less than 0.5 µM.
